Consider 1 compound from paper PMC11241255 (International Journal of Molecular Sciences, 2024).

For assay [1], the target named is T1, Acetylcholinesterase (Electrophorus electricus, Type VI-S) (Electrophorus electricus, UniProt O42275).
T1 construct: purchased Sigma-Aldrich
The assay can be described thus: biochemical. Conditions: for Type of Inhibition of AChE: Lineweaver–Burk plot, 100 and 200 μg/mL; for Vmax of AChE in presence of inhibitor: no inhibitor 2.975; for IC50: read-out: AChE IC50 (converted).
Description: The AChE activity was examined by slight modifications [23] in Ellman’s method [76]. The extracts and phytocompounds were incubated for 15 min with AChE and 10 mM ATCC at 37 °C. The reaction was stopped by DTNB (15 mM), and the absorbance was measured at 412 nm (Multi-mode plate reader, Synergy-H1 BioTek, Agilent, USA). […] The percent inhibition was calculated as:Percent Inhibition (I%) = [(Ao − Ac) − (Bi − Bc)]/(Ao − Ac) × 100 where Ao is the absorbance without inhibitor; Ac is the negative control without inhibitor; Bi is the absorbance with inhibitor; and Bc is the negative control with inhibitor. The IC50 values were calculated using GraphPad Prism 10. Lineweaver–Burk plot was used to prepare the inhibition curves (with and without extract/phytocompound) using GraphPad Prism 10. The kinetic parameters were calculated from a non-linear fit (Michaelis–Menten equation) in GraphPad Prism 10.
Statistical analysis was established by a one-way ANOVA followed by Dunnett’s post hoc test. Data are registered as the mean ± SEM of three sets of experiments. […] The IC50 values were determined using non-linear regression. The Vmax and Km were calculated from a Michaelis–Menten plot drawn using a non-linear plot (GraphPad Prism 10). Lineweaver–Burk plots were drawn using linear regression analysis (GraphPad Prism 10). The Ki values were calculated from the formula IC50 = Ki (1 + [S]/Km).

Another assay concerns the target T2, Aβ1–42 (Homo sapiens, UniProt P05067).
T2 construct: Aβ1–42 for MDS (GenicBio Inc., Shanghai, China); purchased GenicBio Inc
The assay can be described thus: Anti-Aβ1–42 fibrilization, ThT assay. Particulars: samples 500 μg/mL; 37 °C 24 h. In kind it is biochemical. The procedure:
The anti-Aβ1–42 fibrilization activity of the extracts/bioactives was monitored using a ThT assay. The samples were incubated in the presence/absence of Aβ1–42 at 37 °C for 24 h. The samples were incubated with 100 μM ThT at 37 °C for 15 min. The fluorescence was monitored at Ex 450 nm/Ems 490 nm (Synergy-H1 BioTek, Agilent, Santa Clara, CA, USA). For the control, phenol red (50 μM) was used. The Aβ1–42 aggregation inhibition was calculated as follows:Percent Inhibition (%) = [(1 − Fi/Fc) × 100] where Fi and Fc are the fluorescence intensity with and without the inhibitors, respectively.

Assay [2] has as its system AChE (bovine erythrocyte). The arrangement: method as in doi:10.1021/jf960398b. Particulars: cited from earlier work.

Several values for one entry are separate records, joined by “and”; a condition that tells them apart may be missing. Equal entries are not always repeated. Where two headings read alike, the source gives them in different places.

T1 sequence (O42275 24-633): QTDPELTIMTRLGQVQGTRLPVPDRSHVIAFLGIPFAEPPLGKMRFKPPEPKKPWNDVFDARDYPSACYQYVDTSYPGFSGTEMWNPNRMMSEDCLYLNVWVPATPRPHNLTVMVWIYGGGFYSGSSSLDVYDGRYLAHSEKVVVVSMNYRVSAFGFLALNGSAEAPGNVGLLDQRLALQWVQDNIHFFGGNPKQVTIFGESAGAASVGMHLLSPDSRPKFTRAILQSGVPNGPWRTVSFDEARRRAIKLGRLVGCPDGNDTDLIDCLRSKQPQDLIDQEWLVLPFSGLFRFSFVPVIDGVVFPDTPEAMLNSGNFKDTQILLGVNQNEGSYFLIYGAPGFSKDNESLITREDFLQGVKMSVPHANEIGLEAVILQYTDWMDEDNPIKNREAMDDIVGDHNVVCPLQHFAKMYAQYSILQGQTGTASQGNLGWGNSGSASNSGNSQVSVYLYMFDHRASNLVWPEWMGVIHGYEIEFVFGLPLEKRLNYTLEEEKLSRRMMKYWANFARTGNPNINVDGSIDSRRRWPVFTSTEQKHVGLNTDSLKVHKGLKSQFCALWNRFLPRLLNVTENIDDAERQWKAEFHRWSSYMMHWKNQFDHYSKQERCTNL
T2 sequence (P05067 672-713): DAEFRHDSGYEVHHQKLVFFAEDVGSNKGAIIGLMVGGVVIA

For `C=C(C)[C@H]1CC=C(C)C(=O)C1` [carvone, D-carvone], the Ki was 1800 µM in assay [1] (Ki); 1800 µM and 1790 µM in assay [1] (Ki (inhibitor constant), AChE). Further, the “Type of Inhibition of AChE” value is listed as “competitive inhibition” in assay [1] and “Competitive” in assay [1] (listed as Carvone). In addition, the “Vmax of AChE in presence of inhibitor” value in assay [1] (inhibitor 100 μg/mL) came out at 2.900 µmol/min/mg; in assay [1] (inhibitor 200 μg/mL), 3.141 µmol/min/mg. For the same compound, the IC50 in assay [1] (mean of three experiments ± SEM) is 1840 µM; in assay [1] (molar equivalent of the μg/mL value), 1830 µM; in assay [2] it was 1850 µM. The “Aβ fibrilization inhibition (ThT)” value on Aβ1–42 amounted to 42.37 ± 0.76%. Further, in assay [2], the “AChE IC50” value was 277.9 µg/mL. In addition, the “type of AChE inhibition” value in assay [2] was “competitive inhibitor”.
